Data on two molecules can be found in publication PMC9675978 (The Journal of steroid biochemistry and molecular biology, 2022).

Residue numbers refer to the chain shown, from its start. Structures can show the parent of a compound that is named as a salt.

In one test the target is T1, AKR1C3 WT (Homo sapiens, UniProt P42330).
T1 sequence (P42330 1-323): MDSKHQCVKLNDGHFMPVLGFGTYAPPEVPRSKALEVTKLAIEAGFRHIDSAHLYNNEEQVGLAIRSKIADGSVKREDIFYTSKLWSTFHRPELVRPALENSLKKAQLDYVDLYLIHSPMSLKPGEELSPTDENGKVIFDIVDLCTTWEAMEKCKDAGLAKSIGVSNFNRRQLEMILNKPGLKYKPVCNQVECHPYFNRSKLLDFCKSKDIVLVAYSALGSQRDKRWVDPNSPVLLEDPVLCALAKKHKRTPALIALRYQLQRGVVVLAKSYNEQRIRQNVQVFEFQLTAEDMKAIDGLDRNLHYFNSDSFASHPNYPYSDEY
Kind of test: Kd for NAD. The test is classed as binding. As to conditions: read-out: Kd NADP+, 0.5 μM protein, pH 7.0, 25 °C, Morrison equation.

The target in a further test is T2, AKR1C3 H5Q (Homo sapiens, UniProt P42330, H5Q).
T2 sequence (P42330 1-323 H5Q): T1 sequence (P42330 1-323) with H5Q
Kind of test: Kd for NAD. The test is classed as binding. The conditions noted are these: read-out: Kd NADP+, 0.5 μM protein, pH 7.0, 25 °C, Morrison equation.

Another test has as its target T3, AKR1C3 E77G (Homo sapiens, UniProt P42330, E77G).
T3 sequence (P42330 1-323 E77G): T1 sequence (P42330 1-323) with E77G
In words: Kd for NAD. The test is classed as binding. As to conditions: read-out: Kd NADP+, 0.5 μM protein, pH 7.0, 25 °C, Morrison equation.

Test [1] deals with T4, AKR1C3 K104D (Homo sapiens, UniProt P42330, K104D).
T4 sequence (P42330 1-323 K104D): T1 sequence (P42330 1-323) with K104D
Kind of test: Kd for NAD. The test is classed as binding. The conditions noted are these: read-out: Kd NADP+, 0.5 μM protein, pH 7.0, 25 °C, Morrison equation.

Test [2] has as its target T4, AKR1C3 K104D. In words: Specific activity after preincubation at 37 °C with cofactor. The test is classed as biochemical. As to conditions: alone roughly 50%.
Another test concerns AKR1C3. As to conditions: cited from earlier work.

Consider `NC(=O)c1ccc[n+]([C@@H]2O[C@H](COP(=O)([O-])OP(=O)(O)OC[C@H]3O[C@@H](n4cnc5c(N)ncnc54)[C@H](OP(=O)(O)O)[C@@H]3O)[C@@H](O)[C@H]2O)c1` [NADP+, nicotinamide adenine dinucleotide phosphate oxidized disodium salt], for which the Kd on AKR1C3 WT came out at 110 ± 17 nM; on AKR1C3 H5Q it was 120 ± 33 nM; at AKR1C3 E77G, 120 ± 35 nM; on AKR1C3 K104D [1] it was 100 ± 47 nM. Also, the “K104D activity remaining (% of activity at 0 min)” value on AKR1C3 K104D [2] (K104D preincubated at 37 °C with 2 mM NADP+, over four hours) was found to be 100%. In the test on AKR1C3, the “binding affinity of NADP+ relative to NAD+” value is listed as about 1000 times.
As for `NC(=O)c1ccc[n+]([C@@H]2O[C@H](COP(=O)([O-])OP(=O)(O)OC[C@H]3O[C@@H](n4cnc5c(N)ncnc54)[C@H](O)[C@@H]3O)[C@@H](O)[C@H]2O)c1` [NAD+, nicotinamide adenine dinucleotide Grade II free acid], the “K104D activity remaining (% of activity at 0 min)” value at AKR1C3 K104D [2] (K104D preincubated at 37 °C with 2 mM NAD+, four hours) was “roughly 75%”.
